Results on seven compounds are retold here after patent publication EP4818189A1, “NITROGEN-CONTAINING HETEROCYCLIC COMPOUND, AND PREPARATION METHOD AND USE THEREFOR” (Chengdu Di'ao Pharmaceutical Group Co., Ltd., priority 2023, dated 2025).

A word on the AUC(0-t): it is the area under the concentration-time curve up to a stated or last time point. A low value points to less exposure. In general, Papp A→B refers to how fast a substance crosses the layer from the apical side. A high value points to fast passage. As usually defined, the Papp B→A is the apparent permeability from the basolateral to the apical side of a cell layer. Usually half-life stands for the time needed for the level to fall by half in the phase considered. Low readings indicate fast loss, high ones slow loss.

Series [1] can be described thus: Mouse pharmacokinetic detection. The series is classed as in vivo. As to conditions: CD1 mice; for AUC(0-t): oral gavage 10 mg/kg; for bioavailability: oral gavage 10 mg/kg vs intravenous 10 mg/kg. As to the method: The detection was carried out in 6-8-week-old CD1 mice (purchased from: Speifu (Beijing) Biotechnology Co., Ltd.). […] The concentration of the compound in a plasma sample was analyzed by LC-MS/MS. Pharmacokinetic calculation was carried out by using WinNonlin (Phoenix™, Version 8.3) or other similar software. The following pharmacokinetic parameters were calculated based on plasma concentration and time data: Oral administration: AUClast, bioavailability (F). Statistical calculation was carried out on the above parameter data. Table 3 Pharmacokinetic data of some compounds administered orally in mice

In series [2] the test system is CUMS model mice. The series can be described thus: Forced swimming test in CUMS model mice, intravenous administration. In kind it is in vivo, C57/B6 mice. As to conditions: single i.v. dose 100 mg/kg, test 2 hours later (FIG. 3). The text has this:
(§1) 6-8-week-old C57/B6 mice (purchased from: Jinan Pengyue Laboratory Animal Breeding Co., Ltd.) were used to establish a 28-day chronic unpredictable mild stress (CUMS) animal model, and an experimental procedure referred to document description^[1,2]. After one week of acclimatization, seven experiments, including food and water deprivation, foot shock, wet bedding, cage tilting, restraint stress, shaker stress, and olfactory stimulation, were randomly applied to the animals within one week to achieve unpredictability, and the stimulation was continued for 4 consecutive weeks. The successful establishment of the model was verified by an open field test (OFT)^[3], and then pharmacodynamic evaluation was carried out. The animals were divided into a blank control group (Control), a model group (Model), a vehicle control group (Vehicle), a fluoxetine control group and a compound group in the experiment. The test compound was intravenously (i.v.) administered once at a dose of 100 mg/kg, a tail suspension test (TST) and a forced swimming test (FST)^[4,5] were carried out 2 hours later to evaluate the depression of the mice, and prolonged immobility time in the TST and the FST indicated behavioral despair of the mice. After summary statistics of data, SPSS data statistics software was used for analysis, and Graph Pad software was used for graph generation based on SPSS analysis results.

Series [3] has as its system CUMS model mice. The series can be described thus: Tail suspension test in CUMS model mice, intravenous administration. As to conditions: single i.v. dose 100 mg/kg, test 2 hours later (FIG. 4). The series is classed as in vivo, C57/B6 mice.
Excerpt: as §1

Series [4] can be described thus: Permeability detection in MDR1-MDCK II cell monolayer. In kind it is in vitro ADME. As to conditions: dog, pH 7.4, MDR1-MDCK II cells, 2 µM, 2.5 hours; for Papp A→B at 2.5 h, 2 µM: apical to basolateral; for Papp B→A at 2.5 h, 2 µM: basolateral to apical. As for the experimental part: (§2) MDR1-MDCK II cells (imported from the Netherlands Cancer Institute) were seeded in a 96-well cell plate at a density of 3.33×10^5 cells/mL, and cultured in a carbon dioxide incubator for 4-7 days to form a cell monolayer. A Hank's balanced salt solution (HBSS, pH 7.40 ± 0.05) containing 10.0 mM 4-(2-hydroxyethyl)-1-piperazineethanesulfonic acid (HEPES) was used as a transport buffer. A DMSO stock solution of compound was diluted to 2 µM (DMSO < 1.0%) with the transport buffer, and added to the basolateral (B) side and apical (A) side respectively (N=2). The bidirectional (A-B and B-A) incubation concentration of Digoxin, a P-gp substrate, was 10 µM, and the unidirectional (A-B) incubateion concentrations of Nadolol, a low-permeability control, and Metoprolol, a high-permeability control, were 2 µM. The cell plate was incubated in a 5% CO2 cell incubator at 37°C and saturated humidity for 2.5 hours, then final samples from a receiver side and a donor side were collected, added with the transport buffer and a precipitant at an appropriate ratio, and analyzed by LC-MS/MS, and an apparent permeability coefficient, an efflux ratio and a solution recovery were calculated.
(§3) After the transport experiment was completed, an integrity of the MDR1-MDCK II cell layer was detected by a lucifer yellow detection experiment. Residual solution in apical and basolateral wells was removed, and 75 µL of transport buffer containing 100 µM lucifer yellow was added to the apical wells and 250 µL of transport buffer was added to the basolateral wells respectively. The cell plate was incubated in a 5% CO2 cell incubator at 37 °C and saturated humidity for 30 minutes, then 20 µL of sample was taken from the apical side and mixed with 60 µL of transport buffer and 80 µL of sample was taken from the basolateral side. A relative fluorescence intensity was detected by a microplate reader at excitation/emission wavelengths of 425/528 nm, and the permeability of Lucifer Yellow was calculated.
(§4) The apparent permeability coefficient (Papp), efflux ratio (ER) and %solution recovery were respectively calculated by following formulas: Papp = (VR)/(Area × Time) × ([drug]receiver)/([drug]initial,donor) = (VR)/(Area × Time) × (CR)/(C0) [formula] Efflux Ratio = (Papp (B−A))/(Papp (A−B)) [formula] %Solution Recovery = (CR × VR + CD × VD)/(C0 × VD) × 100 [formula]
(§5) VR was the volume of solution in the receiver side (0.075 mL for the apical side and 0.25 mL for the basolateral side respectively), VD was the volume of solution in the donor side (0.075 mL for the apical side and 0.25 mL for the basolateral side respectively), CR was the peak area ratio of compound in the receiver side, CD was the peak area ratio of compound in the donor side, C0 was the initial peak area ratio of compound in the donor side, Area was the surface area (0.143 cm^2) of the cell monolayer, and Time was incubation time of 9000 seconds (150 minutes). Papp(B-A) and Papp(A-B) respectively referred to the apparent permeability coefficient from the basolateral side to the apical side and the apparent permeability coefficient from the apical side to the basolateral side.
(§6) The permeability of Lucifer Yellow(%Lucifer Yellow) was calculated by the following formula: %Lucifer Yellow = (VBasolateral × RFUBasolateral)/(VApical × RFUApical + VBasolateral × RFUBasolateral) × 100 [formula]
(§7) RFUApical and RFUBasolareral respectively referred to relative fluorescence intensities of lucifer yellow in the apical side and the basolateral side. VApical and VBasolateral respectively referred to loading volumes (0.075 mL and 0.25 mL respectively) in the apical side and the basolateral side. Table 2 Permeability data of some compounds

Another series concerns MDR1-MDCK II cells. The series is described as above. In kind it is in vitro ADME. As to conditions: permeability rank. As to the method: as §2, §3, §4, §5, §6, §7
The nature of series [5]: Rat pharmacokinetic detection. The series is classed as in vivo. As to conditions: plasma, male SD rats; for AUC(0-t): oral gavage 15 mg/kg; for bioavailability: oral gavage 15 mg/kg vs intravenous 10 mg/kg. As for the experimental part:
The detection was carried out in 6-8-week-old male SD rats (purchased from:SPF (Beijing) Biotechnology Co., Ltd.). A test compound was dissolved in a solution containing 10% DMSO, 15% Solutol HS and 75% (aqueous solution of 10% hydroxypropyl-β-cyclodextrin), and administered via intravenous injection (10 mg/kg) or oral gavage (15 mg/kg). A concentration of the compound in a plasma sample was analyzed by LC-MS/MS. Pharmacokinetic calculation was carried out by using WinNonlin (Phoenix™, Version 8.3). The following pharmacokinetic parameters were calculated based on plasma concentration and time data: Oral administration: AUClast, bioavailability (F). Statistical calculation was carried out on the above parameter data. Table 4 Pharmacokinetic data of some compounds administered orally in rats

Series [6] has as its system CUMS model mice. Nature of the series: Tail suspension test in CUMS model mice, oral administration. The series is classed as in vivo, C57/B6 mice. As to conditions: single oral dose 25 mg/kg, test 2 hours later (FIG. 1, FIG. 2).
Excerpt: as §1, with “fluoxetine control group, ZZL-7 experimental group and” for “fluoxetine control group and”, “compound was orally administered once” for “compound was intravenously (i.v.) administered once”, “dose of 25 mg/kg, a” for “dose of 100 mg/kg, a”, “suspension test (TST)^[4,5] was carried out” for “suspension test (TST) and a forced swimming test (FST)^[4,5] were carried out”, “the TST indicated behavioral” for “the TST and the FST indicated behavioral”

A short description of series [7]: Plasma stability determination. The series is classed as in vitro ADME. As to conditions: mouse. As for the experimental part:
Mouse plasma (purchased from IPHASE, Batch No. 23B007) was thawed in a 37°C water bath, centrifuged to remove an upper clot, and the pH value was recorded as 7-8. An appropriate volume of stock solution of test compound in acetonitrile (at a concentration of 10 mM) was diluted with acetonitrile to 1 mM, so as to serve as a test drug solution. An appropriate volume of test drug solution was added to a corresponding volume of plasma and mixed uniformly, such that the concentration of the test compound in the incubation system was 5 µM, and the content of the organic solvent acetonitrile was 0.5%. 50 µL of mixed plasma was transferred into a 96-well plate (N=2), incubated at 37°C in a water bath for a designated time, and then added with 300 µL of internal standard-containing methanol solution to terminate the reaction. The reaction mixture was vortexed and centrifuged, and the supernatant was subjected to LC-MS/MS analysis. Propantheline and ZZL-7 were used as positive controls, and processed and tested under the same conditions as the test compound. A curve was plotted with the remaining percentage of the compound against incubation time to obtain a k value, and the half-life of each compound was calculated.

Where a SMILES comes first, the peptide text is derived from it. [ ]: non-standard residue; d: D form. ξ: configuration not given here. pGlu = O=C1CC[C@@H](C(=O)O)N1; ξAze = O=C(O)C1CCN1

For the compound `COC(=O)[C@@H](NC(=O)c1cnc(C)[nH]1)C(C)C` [A-1-1], in series [1] (plasma), the AUC(0-t) amounted to 629 ng·h/mL and the bioavailability is 35.3%. For the same compound, the “immobility time in the forced swimming test” value in the series on CUMS model mice [2] is “rapidly reverse the prolonged immobility time”. For the same compound, the “immobility time in the tail suspension test” value in the series on CUMS model mice [3] is recorded as “rapidly reverse the prolonged immobility time”.

Consider `COC(=O)[C@@H](NC(=O)c1ccc[nH]1)C(C)C` [A-1-7], for which, in series [1] (in vivo), the AUC(0-t) is 154 ng·h/mL and the bioavailability came to 27.3%. Moreover, the “immobility time in the forced swimming test” value with CUMS model mice [2] was “rapidly reverse the prolonged immobility time”. The “immobility time in the tail suspension test” value in the series on CUMS model mice [3] is “rapidly reverse the prolonged immobility time”.

Take `COC(=O)[C@@H](NC(=O)C1CCN1C(C)=O)C(C)C` (stereo partly drawn) [A-2-1] (Ac-[ξAze]-Val-OMe): in series [1] (plasma), the area under the curve AUC(0-t) turned out to be 3130 ng·h/mL and the bioavailability worked out at 156%. The “immobility time in the forced swimming test” value with CUMS model mice [2] is “rapidly reverse the prolonged immobility time”. For the same compound, in the series with CUMS model mice [3], the “immobility time in the tail suspension test” value is recorded as “rapidly reverse the prolonged immobility time”.

In series [4], `[2H]C([2H])([2H])C(=O)N1CC[C@@H]1C(=O)N[C@H](c1ncco1)C(C)C` [B-2-3] showed an apparent permeability from apical to basolateral (Papp A→B) at 2.5 h, 2 µM of 2.42 ×10⁻⁶ cm/s and a Papp B→A at 2.5 h, 2 µM of 3.22 ×10⁻⁶ cm/s. For the same compound, the “Rank Papp” value with MDR1-MDCK II cells was “Moderate”. Further, in series [1] (plasma), the AUC(0-t) worked out at 10900 ng·h/mL and the bioavailability was 159%. In series [5], the AUC(0-t) was 24300 ng·h/mL and the bioavailability is 66%. In addition, the “immobility time in the tail suspension test” value in the series with CUMS model mice [6] was “rapidly reverse the prolonged immobility time”.

With `CC(=O)N1CC[C@@H]1C(=O)N[C@H](c1ncco1)C(C)C` [B-2-41], the half-life at 5 µM in series [7] was above 289 min. In series [4], this compound came in with a Papp A→B at 2.5 h, 2 µM of 4.07 ×10⁻⁶ cm/s and an apparent permeability from basolateral to apical (Papp B→A) at 2.5 h, 2 µM of 5.61 ×10⁻⁶ cm/s. In addition, the “Rank Papp” value with MDR1-MDCK II cells is “Moderate”. In series [1] (plasma), the AUC(0-t) is 11600 ng·h/mL and the bioavailability came to 90%. The “immobility time in the tail suspension test” value in the series with CUMS model mice [6] was “rapidly reverse the prolonged immobility time”.

On to `CC(C)C[C@H](NC(=O)[C@@H]1CCC(=O)N1)C(=O)O` [D4-pEL, reference compound] ([pGlu]-Leu-OH), for which, in series [4], the Papp A→B at 2.5 h, 2 µM was below 0.216 ×10⁻⁶ cm/s and the Papp B→A at 2.5 h, 2 µM turned out to be 0.302 ×10⁻⁶ cm/s. Besides, the “Rank Papp” value in the series on MDR1-MDCK II cells is recorded as “Low”. In series [1] (plasma), the exposure AUC(0-t) turned out to be 555 ng·h/mL and the bioavailability amounted to 7.7%. Also, in series [5], the AUC(0-t) amounted to 98.6 ng·h/mL and the bioavailability came to 1.04%.

For `C[C@H](NC(=O)[C@@H]1CCCN1)C(=O)O` [D5-PA, reference compound] (H-Pro-Ala-OH), the half-life at 5 µM in series [7] worked out at 52.6 min. In series [4], this compound yielded a Papp A→B at 2.5 h, 2 µM of 0.15 ×10⁻⁶ cm/s and a Papp B→A at 2.5 h, 2 µM of 0.3 ×10⁻⁶ cm/s. In addition, the “Rank Papp” value with MDR1-MDCK II cells is on record as “Low”. Besides, in series [1] (plasma), the exposure AUC(0-t) came out at 38 ng·h/mL and the bioavailability was 3.8%. Further, in series [5], the AUC(0-t) was determined as 11.5 ng·h/mL and the bioavailability worked out at 0.71%.
